Consider 1 molecule from patent publication US20070292888A1, “Methods for Measuring Enzyme Activities in Cells, Blood, Tumors and Tissues” (GEN-PATH PHARMACEUTICALS, INC., priority 2004, published 2007).

In the test the target is T1, kGDH (Homo sapiens, UniProt Q02218).
T1 construct: Log-phase growing cells were trypsinized and resuspended in TDM; endogenous in cells
T1 sequence (Q02218 41-1023): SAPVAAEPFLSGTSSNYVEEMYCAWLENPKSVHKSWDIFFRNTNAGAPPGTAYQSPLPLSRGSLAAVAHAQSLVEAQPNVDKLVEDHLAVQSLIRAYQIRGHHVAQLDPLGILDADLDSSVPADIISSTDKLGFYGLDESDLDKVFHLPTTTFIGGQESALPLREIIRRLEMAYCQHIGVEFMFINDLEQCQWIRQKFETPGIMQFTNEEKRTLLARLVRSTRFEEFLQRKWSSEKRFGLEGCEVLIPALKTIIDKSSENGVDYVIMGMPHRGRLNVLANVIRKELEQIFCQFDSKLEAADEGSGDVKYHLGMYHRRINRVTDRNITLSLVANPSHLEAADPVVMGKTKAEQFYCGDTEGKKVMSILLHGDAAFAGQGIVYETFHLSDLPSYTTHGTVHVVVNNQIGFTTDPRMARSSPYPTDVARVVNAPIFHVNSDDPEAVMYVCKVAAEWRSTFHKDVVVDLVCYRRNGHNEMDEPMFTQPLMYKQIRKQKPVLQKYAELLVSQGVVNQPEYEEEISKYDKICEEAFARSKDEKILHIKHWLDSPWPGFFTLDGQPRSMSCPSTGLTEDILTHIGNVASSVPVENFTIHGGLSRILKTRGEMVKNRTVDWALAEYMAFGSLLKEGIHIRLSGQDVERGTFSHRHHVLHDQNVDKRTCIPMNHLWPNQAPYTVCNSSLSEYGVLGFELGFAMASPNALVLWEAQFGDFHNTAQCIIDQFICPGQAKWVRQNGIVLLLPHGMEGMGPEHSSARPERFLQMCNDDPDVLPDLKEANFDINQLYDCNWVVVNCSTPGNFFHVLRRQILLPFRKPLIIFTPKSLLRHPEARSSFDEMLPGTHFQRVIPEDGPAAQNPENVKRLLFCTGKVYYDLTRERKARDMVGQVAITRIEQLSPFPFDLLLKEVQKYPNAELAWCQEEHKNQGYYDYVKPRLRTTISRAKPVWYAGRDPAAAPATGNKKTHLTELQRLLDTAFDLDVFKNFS
T1 sequence (P36957 68-453 partner): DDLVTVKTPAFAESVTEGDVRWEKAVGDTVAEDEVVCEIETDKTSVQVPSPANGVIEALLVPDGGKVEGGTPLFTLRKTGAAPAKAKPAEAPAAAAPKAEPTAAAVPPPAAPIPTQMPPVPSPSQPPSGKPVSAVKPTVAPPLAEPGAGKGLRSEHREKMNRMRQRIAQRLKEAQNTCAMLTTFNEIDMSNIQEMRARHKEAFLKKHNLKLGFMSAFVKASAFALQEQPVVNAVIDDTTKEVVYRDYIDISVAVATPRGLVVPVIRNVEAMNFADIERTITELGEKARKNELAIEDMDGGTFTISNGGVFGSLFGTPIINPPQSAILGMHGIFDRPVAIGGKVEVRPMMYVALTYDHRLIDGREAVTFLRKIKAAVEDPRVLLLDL
T1 sequence (P09622 36-509 partner): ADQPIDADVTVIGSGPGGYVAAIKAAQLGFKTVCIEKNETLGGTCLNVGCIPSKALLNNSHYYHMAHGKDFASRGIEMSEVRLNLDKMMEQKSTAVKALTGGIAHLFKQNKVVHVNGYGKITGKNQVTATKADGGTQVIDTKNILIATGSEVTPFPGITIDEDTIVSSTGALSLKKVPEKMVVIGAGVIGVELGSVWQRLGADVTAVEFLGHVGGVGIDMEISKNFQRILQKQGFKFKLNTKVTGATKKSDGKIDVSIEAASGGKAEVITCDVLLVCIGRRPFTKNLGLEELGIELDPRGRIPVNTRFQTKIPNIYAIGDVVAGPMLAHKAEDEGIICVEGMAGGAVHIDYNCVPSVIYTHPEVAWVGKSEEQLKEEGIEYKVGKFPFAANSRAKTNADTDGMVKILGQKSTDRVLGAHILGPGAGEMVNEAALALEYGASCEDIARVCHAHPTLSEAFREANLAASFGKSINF
Kind of test: Cell-based kGDH inhibition in thiamine-depleted media, 96-well format. The conditions noted are these: treated cells, 48 hours treatment. How it is done:
We determined the IC50 of compounds that inhibit the activity of the TPP utilizing enzymes TK, kGDH and PDH in a convenient 96-well format using an optimized version of the method described in the previous Examples.
The high thiamine levels in conventional cell culture media (e.g., DMEM (12 μM), RPMI (3 μM)) masks the inhibitory effect of such inhibitors. To measure the IC50 of such inhibitors, thus, a thiamine depleted DMEM, containing all the ingredients of normal DMEM except for thiamine (HyClone, custom order), was used. Thiamine-depleted media (TDM) is made up with thiamine-depleted DMEM, 10% FBS, which contains negligible amount of thiamine (estimated to be ˜3-5% nM) and 1% Penicillin-streptomycin.
Log-phase growing cells were trypsinized and resuspended in TDM. Optimization of the initial cell counts is recommended for each cell line to ensure that enzyme activity can be observed at the beginning and that healthy growth can continue. For cell lines that have a doubling time of approximately 24 hours and cellular transketolase levels high enough to be reliably detected with five thousand (5K) cells such as HCT116 and HT1080, 8K cells are recommended.
Media containing 8K cells (95 μl) were used to seed individual wells in a 96-well clear-bottom cell cultured treated sterile plate. […] Enzymatic inhibition was expressed as percent of control wells that were not treated with compounds. […]

`Cc1ccc(C[n+]2csc(CCO)c2C)c(N)n1` [N3PT, 3-[(2-amino-6-methyl-3-pyridinyl)methyl]-5-(2-hydroxyethyl)-4-methyl thiazolium] displayed an IC50 of 86 nM.

The IC50 is the concentration that gives 50% inhibition. Read a high IC50 as a need for much substance.
